Test results as given in ChEMBL document CHEMBL1201862, “PubChem BioAssay data set” (2004).
Activity calls are given as the source filed them.

Columns and labels:
[1] = biological target: Mitochondrial peptide methionine sulfoxide reductase (Bos taurus, UniProt P54149); format: functional;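 also: absorbance read-out, biochemical high-throughput dose-response screen for MsrA inhibitors, confirmatory; recombinant bovine MsrA coupled to E. coli TrxB with NADPH and selenocystamine; potency is for inhibitors of MsrA activity on DMSO substrate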
[2] = tested on: Streptococcus sp. 'group A'; experiment: Streptococcus pyogenes SK(-)GAS viability under kanamycin – luminescence, BacTiterGlo, confirmation, counter-screen for streptokinase expression inhibitor project, dose response (AID 1900); format: functional, organism-based
Streptococcus = experiment: GAS UMAA2166 growth inhibition – luminescence, BacTiterGlo, counter-screen for streptokinase expression inhibitor project, dose response (AID 1915); format: functional, organism-based;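 also: potency for reduction of bacterial viability or growth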
[3] = biological target: T1, Histone-lysine N-methyltransferase NSD2 (Homo sapiens, UniProt O96028); format: biochemical
T1 sequence (O96028 whole entry): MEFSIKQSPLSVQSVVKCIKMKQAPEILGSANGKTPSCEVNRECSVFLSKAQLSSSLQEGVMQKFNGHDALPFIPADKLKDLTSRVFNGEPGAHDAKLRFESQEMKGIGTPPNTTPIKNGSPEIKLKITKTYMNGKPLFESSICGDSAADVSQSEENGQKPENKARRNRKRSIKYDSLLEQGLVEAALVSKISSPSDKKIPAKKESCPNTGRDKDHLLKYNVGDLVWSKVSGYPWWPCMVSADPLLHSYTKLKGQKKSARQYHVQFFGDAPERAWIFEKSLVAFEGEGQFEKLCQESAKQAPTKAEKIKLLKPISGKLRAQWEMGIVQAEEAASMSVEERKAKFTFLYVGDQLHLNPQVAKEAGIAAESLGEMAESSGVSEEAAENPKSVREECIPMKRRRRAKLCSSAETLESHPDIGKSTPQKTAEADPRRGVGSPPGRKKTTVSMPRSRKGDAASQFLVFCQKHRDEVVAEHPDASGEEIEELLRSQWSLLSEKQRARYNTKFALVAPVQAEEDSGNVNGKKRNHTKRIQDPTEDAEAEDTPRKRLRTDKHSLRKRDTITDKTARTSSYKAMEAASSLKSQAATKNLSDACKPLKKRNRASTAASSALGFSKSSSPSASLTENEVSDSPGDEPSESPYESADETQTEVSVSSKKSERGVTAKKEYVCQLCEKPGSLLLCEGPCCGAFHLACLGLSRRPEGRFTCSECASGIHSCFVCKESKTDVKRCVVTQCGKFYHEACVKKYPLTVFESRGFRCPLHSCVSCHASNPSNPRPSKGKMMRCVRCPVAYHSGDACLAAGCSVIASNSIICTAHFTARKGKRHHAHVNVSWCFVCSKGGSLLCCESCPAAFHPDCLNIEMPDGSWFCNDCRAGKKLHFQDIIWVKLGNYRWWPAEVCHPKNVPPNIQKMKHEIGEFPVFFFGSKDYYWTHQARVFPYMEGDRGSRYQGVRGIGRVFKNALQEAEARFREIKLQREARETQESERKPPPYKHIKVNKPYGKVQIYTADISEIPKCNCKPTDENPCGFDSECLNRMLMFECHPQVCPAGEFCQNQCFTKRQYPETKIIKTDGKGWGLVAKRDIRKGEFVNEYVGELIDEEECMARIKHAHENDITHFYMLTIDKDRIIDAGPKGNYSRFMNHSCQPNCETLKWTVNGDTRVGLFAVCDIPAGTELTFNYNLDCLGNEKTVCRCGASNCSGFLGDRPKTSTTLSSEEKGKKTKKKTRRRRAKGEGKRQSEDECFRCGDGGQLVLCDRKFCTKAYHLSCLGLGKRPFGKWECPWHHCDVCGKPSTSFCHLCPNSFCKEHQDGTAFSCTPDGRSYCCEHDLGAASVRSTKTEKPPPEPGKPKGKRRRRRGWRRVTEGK

[4] = biological target: T2, Sentrin-specific protease 6 (Homo sapiens, UniProt Q9GZR1); format: functional;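 also: Luminescence-based dose-response confirmatory assay of SENP6 inhibition, following up an ultra-high-throughput screen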
T2 sequence (Q9GZR1 whole entry): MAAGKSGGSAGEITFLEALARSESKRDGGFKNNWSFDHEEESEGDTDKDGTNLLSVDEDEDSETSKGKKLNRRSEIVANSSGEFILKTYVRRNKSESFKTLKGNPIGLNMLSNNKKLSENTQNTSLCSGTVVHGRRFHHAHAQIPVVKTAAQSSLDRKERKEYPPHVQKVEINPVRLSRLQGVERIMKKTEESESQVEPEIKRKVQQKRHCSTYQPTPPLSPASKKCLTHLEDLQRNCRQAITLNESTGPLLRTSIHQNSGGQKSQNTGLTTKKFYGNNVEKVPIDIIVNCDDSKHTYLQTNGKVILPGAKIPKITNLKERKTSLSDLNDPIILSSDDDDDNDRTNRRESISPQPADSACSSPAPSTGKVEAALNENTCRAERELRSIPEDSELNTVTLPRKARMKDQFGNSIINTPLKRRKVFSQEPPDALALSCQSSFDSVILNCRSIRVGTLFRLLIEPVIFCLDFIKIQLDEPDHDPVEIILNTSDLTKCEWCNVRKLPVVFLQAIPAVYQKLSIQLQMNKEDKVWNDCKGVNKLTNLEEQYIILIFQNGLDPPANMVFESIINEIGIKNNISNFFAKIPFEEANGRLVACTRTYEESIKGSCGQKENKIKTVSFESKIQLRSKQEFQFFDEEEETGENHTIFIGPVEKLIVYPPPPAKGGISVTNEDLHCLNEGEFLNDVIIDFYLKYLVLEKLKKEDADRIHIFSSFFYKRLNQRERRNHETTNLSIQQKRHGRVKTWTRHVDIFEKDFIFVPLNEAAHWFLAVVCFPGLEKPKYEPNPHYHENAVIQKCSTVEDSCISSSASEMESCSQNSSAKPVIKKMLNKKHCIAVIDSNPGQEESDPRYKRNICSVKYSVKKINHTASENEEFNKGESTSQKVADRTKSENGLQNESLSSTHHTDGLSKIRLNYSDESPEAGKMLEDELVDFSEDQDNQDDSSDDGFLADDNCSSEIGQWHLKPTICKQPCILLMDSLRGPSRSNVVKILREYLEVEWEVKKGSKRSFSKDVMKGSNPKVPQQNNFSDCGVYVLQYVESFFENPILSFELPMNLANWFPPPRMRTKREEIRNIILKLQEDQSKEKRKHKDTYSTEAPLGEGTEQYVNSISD

Mitochondrial peptide methionine sulfoxide reductase, sequence (P54149 whole entry): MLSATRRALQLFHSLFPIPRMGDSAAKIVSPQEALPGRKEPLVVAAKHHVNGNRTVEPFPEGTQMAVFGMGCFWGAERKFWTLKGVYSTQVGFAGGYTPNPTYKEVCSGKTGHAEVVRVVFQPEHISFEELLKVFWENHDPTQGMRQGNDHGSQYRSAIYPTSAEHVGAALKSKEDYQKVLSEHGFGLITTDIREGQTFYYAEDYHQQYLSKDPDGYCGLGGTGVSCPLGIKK

| SMILES | IC50 [1] | EC50 [2] | EC50 (Streptococcus) | AC50 [3] | IC50 [4] |
| --- | --- | --- | --- | --- | --- |
| Cc1ccccc1NC1=C/C(=N\S(=O)(=O)c2ccc(C(=O)O)cc2)c2ccccc2C1=O | 62.4 µM (inactive) | 1.67 µM (active) | 5.01 µM (active) | 0.117 µM (active) | – |
| Cc1ccc(NC2=C/C(=N/S(=O)(=O)c3cccs3)c3ccccc3C2=O)cc1 | 425 µM (inactive) | – | – | – | 0.186 µM (active) |
| COc1ccc(-c2cc(-c3ccc(C)cc3)[nH]n2)c(O)c1 | – | 11 µM (active) | 15.8 µM (active) | – | 19.7 µM (active) |
| O=C(Nc1ccc(C#Cc2ccccc2)cc1)C1CC1 | – | – | – | – | > 100 µM (inactive) |
| CCCCn1c(NC(=O)c2ccco2)c(C(=O)OCC)c2nc3ccccc3nc21 | – | – | – | 2.94 µM (active) | 3.25 µM (active) |
